One assay concerns ENR+CD organoids. In words: Primary screen: ATP (CellTiter-Glo 3D, CTG) cell number/viability, 2.5-D 384-well ENR+CD organoids.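 On all read-outs here: compounds given at plating and again on day 3 over a 6-day differentiation from ENR+CV stem-cell-enriched precursors, ATP measured on day 6, plate median as control.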 The conditions noted are these: primary screen; for Z.CTG: standard z score. (In general: ATP-based viability assays read luminescence as a measure of living cells.)
Assay [1] concerns ENR+CD organoids (ISC to Paneth cell differentiation). In words: Primary screen: CCh-stimulated lysozyme secretion LYZ.S, 2.5-D 384-well ENR+CD organoid differentiation. The class given is cell-based, mouse. Conditions: primary screen. An excerpt: (§1) High-throughput screening.
Assay [2] shares this test system. The assay can be described thus: Primary screen: basal (non-stimulated) lysozyme secretion LYZ.NS, 2.5-D 384-well ENR+CD organoid differentiation. The conditions noted are these: primary screen; for Z.LYZ.NS: standard z score. The format is cell-based, mouse.
Excerpt: as §1

Setting [3] is: dose 0.08 uM, FC relative to plate median.
Setting [4] is: dose 0.40 uM, FC relative to plate median.
[5] abbreviates: dose 2.00 uM, FC relative to plate median.
[6] abbreviates: dose 10.00 uM, FC relative to plate median.
Setting [7] is: dose 0.08 uM, FC vs plate median.
Where [8] appears, read: dose 0.40 uM, FC vs plate median.
Setting [9] is: dose 2.00 uM, FC vs plate median.
Setting [10] is: dose 10.00 uM, FC vs plate median.

The source of these data is patent US20220323406A1, “METHODS AND COMPOSITIONS FOR DIFFERENTIATING STEM CELLS” (Massachusetts Institute of Technology, priority 2019, published 2022).

In the case of `C[C@@H]1COCCN1c1cc(C2(S(C)(=O)=O)CC2)nc(-c2cccc3[nH]ccc23)n1` [AZ20], the Dose.FC.CTG was −0.210 log2 fold change in the assay on ENR+CD organoids (dose 0.08 uM), −0.218 log2 fold change in the assay on ENR+CD organoids (dose 0.40 uM), −1.054 log2 fold change in the assay with ENR+CD organoids (dose 2.00 uM) and −0.573 log2 fold change with ENR+CD organoids (dose 10.00 uM). Besides, the “Z.CTG (standard z score)” value in the assay on ENR+CD organoids (dose 0.08 uM) is on record as −0.500; in the assay with ENR+CD organoids (dose 0.40 uM), −0.521; in the assay with ENR+CD organoids (dose 2.00 uM) it was −2.519; in the assay on ENR+CD organoids (dose 10.00 uM) it was −1.368. For the same compound, the Dose.FC.LYZ.S in assay [1] (dose 0.08 uM) is −0.038 log2 fold change; in assay [1] (dose 0.40 uM), −0.236 log2 fold change; in assay [1] (dose 2.00 uM), −0.373 log2 fold change; in assay [1] (dose 10.00 uM), −0.329 log2 fold change. The Dose.FC.LYZ.NS is 0.042 log2 fold change in assay [2] (dose 0.08 uM), −0.140 log2 fold change in assay [2] (dose 0.40 uM), −0.215 log2 fold change in assay [2] (dose 2.00 uM) and −0.261 log2 fold change in assay [2] (dose 10.00 uM). Besides, the “Z.LYZ.NS (standard z score)” value is listed as 0.365 in assay [2] (dose 0.08 uM), −1.222 in assay [2] (dose 0.40 uM), −1.868 in assay [2] (dose 2.00 uM) and −2.271 in assay [2] (dose 10.00 uM).
Take `Cl.NC(=O)c1cnc(N[C@@H]2CCCC[C@@H]2N)nc1Nc1cccc(-n2nccn2)c1` [PRT062607 (P505-15, BIIB057) HCl]: the Dose.FC.CTG in the assay on ENR+CD organoids (setting [3]) is recorded as −0.092 log2 fold change; with ENR+CD organoids (setting [4]) it was 0.080 log2 fold change; in the assay with ENR+CD organoids (setting [5]), −0.075 log2 fold change; in the assay with ENR+CD organoids (setting [6]) it was −0.330 log2 fold change. Further, the Z.CTG in the assay with ENR+CD organoids (dose 0.08 uM) is given as −0.219; in the assay with ENR+CD organoids (dose 0.40 uM), 0.191; in the assay on ENR+CD organoids (dose 2.00 uM) it was −0.179; with ENR+CD organoids (dose 10.00 uM), −0.788. The Dose.FC.LYZ.S in assay [1] (setting [3]) is −0.033 log2 fold change; in assay [1] (setting [4]), 0.122 log2 fold change; in assay [1] (setting [5]), −0.123 log2 fold change; in assay [1] (setting [6]) it was −0.298 log2 fold change. For the same compound, the Dose.FC.LYZ.NS in assay [2] (setting [3]) was 0.004 log2 fold change; in assay [2] (setting [4]), 0.022 log2 fold change; in assay [2] (setting [5]) it was −0.032 log2 fold change; in assay [2] (setting [6]), −0.211 log2 fold change. Further, the Z.LYZ.NS is 0.037 in assay [2] (dose 0.08 uM), 0.194 in assay [2] (dose 0.40 uM), −0.280 in assay [2] (dose 2.00 uM) and −1.837 in assay [2] (dose 10.00 uM).
Consider `C1=N/C2=N/c3ccc(OCCN4CCCC4)c(c3)COC/C=C/COCc3cccc(c3)C(=C1)N2` [Pacritinib (SB1518)], for which the Z.CTG was −0.014 in the assay on ENR+CD organoids (dose 0.08 uM), 0.236 with ENR+CD organoids (dose 0.40 uM), −0.560 with ENR+CD organoids (dose 2.00 uM) and −3.047 with ENR+CD organoids (dose 10.00 uM). Besides, the Dose.FC.CTG with ENR+CD organoids (setting [7]) is −0.006 log2 fold change; in the assay with ENR+CD organoids (setting [8]) it was 0.099 log2 fold change; in the assay on ENR+CD organoids (setting [9]) it was −0.235 log2 fold change; in the assay on ENR+CD organoids (setting [10]) it was −1.276 log2 fold change. For the same compound, the Dose.FC.LYZ.S in assay [1] (setting [7]) was 0.066 log2 fold change; in assay [1] (setting [8]), −0.032 log2 fold change; in assay [1] (setting [9]) it was −0.304 log2 fold change; in assay [1] (setting [10]) it was −0.419 log2 fold change. The Z.LYZ.NS is reported as 0.795 in assay [2] (dose 0.08 uM), −0.299 in assay [2] (dose 0.40 uM), −1.908 in assay [2] (dose 2.00 uM) and −2.391 in assay [2] (dose 10.00 uM). The Dose.FC.LYZ.NS was 0.091 log2 fold change in assay [2] (setting [7]), −0.034 log2 fold change in assay [2] (setting [8]), −0.219 log2 fold change in assay [2] (setting [9]) and −0.275 log2 fold change in assay [2] (setting [10]).
Take `Nc1ncnc2c1c(-c1cccc(OCc3ccccc3)c1)cn2C1CC(CN2CCCC2)C1` (centres unmarked) [NVP-ADW742]: the Z.CTG is 1.622 in the assay with ENR+CD organoids (dose 0.08 uM), 1.583 with ENR+CD organoids (dose 0.40 uM), 0.614 in the assay with ENR+CD organoids (dose 2.00 uM) and −1.112 in the assay on ENR+CD organoids (dose 10.00 uM). Also, the Dose.FC.CTG with ENR+CD organoids (setting [7]) was 0.679 log2 fold change; in the assay on ENR+CD organoids (setting [8]), 0.663 log2 fold change; in the assay with ENR+CD organoids (setting [9]), 0.257 log2 fold change; in the assay with ENR+CD organoids (setting [10]) it was −0.465 log2 fold change. Besides, the Dose.FC.LYZ.S in assay [1] (setting [7]) was 0.245 log2 fold change; in assay [1] (setting [8]) it was 0.265 log2 fold change; in assay [1] (setting [9]) it was −0.166 log2 fold change; in assay [1] (setting [10]), −0.210 log2 fold change. Also, the Z.LYZ.NS in assay [2] (dose 0.08 uM) is on record as 1.239; in assay [2] (dose 0.40 uM), 1.499; in assay [2] (dose 2.00 uM), −0.823; in assay [2] (dose 10.00 uM), −1.172. For the same compound, the Dose.FC.LYZ.NS was 0.142 log2 fold change in assay [2] (setting [7]), 0.172 log2 fold change in assay [2] (setting [8]), −0.095 log2 fold change in assay [2] (setting [9]) and −0.135 log2 fold change in assay [2] (setting [10]).
